Laboratory results as given in patent US10669272B2, “Substituted naphthyridinone compounds useful as T cell activators” (BRISTOL-MYERS SQUIBB COMPANY, priority 2018, dated 2020).
pEC50, pIC50: −log10 of the molar value. Read-outs that look alike come from different tables or passages of the source.

Legend:
human DGKζ = target: T1, human DGKζ (Homo sapiens, UniProt Q13574); experiment: DGKζ LIPGLO assay (extruded liposome substrate), in vitro DGK inhibition; type: biochemical; conditions: read-out: DGKz LIPGLO IC50
T1 construct: TVMV protease cleavage site (C); Hexa-His (C); made in house; host or cells: Sf9 insect cells (baculovirus, Bac-to-Bac)
T1 sequence (Q13574 with tags, fused parts or gaps isoform Q13574-4): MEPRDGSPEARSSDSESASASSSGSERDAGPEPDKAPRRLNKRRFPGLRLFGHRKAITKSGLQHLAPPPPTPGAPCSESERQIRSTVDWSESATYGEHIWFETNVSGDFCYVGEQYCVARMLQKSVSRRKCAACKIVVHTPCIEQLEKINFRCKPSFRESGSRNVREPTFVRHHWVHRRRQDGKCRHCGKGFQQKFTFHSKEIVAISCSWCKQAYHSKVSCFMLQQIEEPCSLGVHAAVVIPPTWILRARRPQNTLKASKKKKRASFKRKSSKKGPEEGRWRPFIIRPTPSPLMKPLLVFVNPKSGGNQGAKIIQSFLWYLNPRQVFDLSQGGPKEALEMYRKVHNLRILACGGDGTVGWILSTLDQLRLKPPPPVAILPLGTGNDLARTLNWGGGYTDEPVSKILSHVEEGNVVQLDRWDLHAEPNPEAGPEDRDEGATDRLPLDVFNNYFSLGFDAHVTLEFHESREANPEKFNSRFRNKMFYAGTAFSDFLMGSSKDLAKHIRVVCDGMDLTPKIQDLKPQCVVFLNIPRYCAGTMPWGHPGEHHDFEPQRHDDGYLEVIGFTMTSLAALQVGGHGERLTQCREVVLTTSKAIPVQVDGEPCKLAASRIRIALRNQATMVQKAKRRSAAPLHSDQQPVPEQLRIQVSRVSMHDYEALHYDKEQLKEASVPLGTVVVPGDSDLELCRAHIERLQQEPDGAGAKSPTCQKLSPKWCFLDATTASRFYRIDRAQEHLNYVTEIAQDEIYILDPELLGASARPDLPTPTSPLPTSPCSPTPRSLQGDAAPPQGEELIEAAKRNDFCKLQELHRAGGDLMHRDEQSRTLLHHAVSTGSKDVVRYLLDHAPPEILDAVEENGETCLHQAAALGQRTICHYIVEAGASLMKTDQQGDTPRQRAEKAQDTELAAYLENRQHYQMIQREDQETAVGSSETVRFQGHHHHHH

human DGKα = target: T2, human DGKα (Homo sapiens, UniProt P23743); experiment: DGKα LIPGLO assay (extruded liposome substrate), in vitro DGK inhibition; type: biochemical; conditions: read-out: DGKa LIPGLO IC50
T2 construct: TVMV protease cleavage site (C); Hexa-His (C); made in house; host or cells: Sf9 insect cells (baculovirus, Bac-to-Bac)
T2 sequence (P23743 with tags, fused parts or gaps): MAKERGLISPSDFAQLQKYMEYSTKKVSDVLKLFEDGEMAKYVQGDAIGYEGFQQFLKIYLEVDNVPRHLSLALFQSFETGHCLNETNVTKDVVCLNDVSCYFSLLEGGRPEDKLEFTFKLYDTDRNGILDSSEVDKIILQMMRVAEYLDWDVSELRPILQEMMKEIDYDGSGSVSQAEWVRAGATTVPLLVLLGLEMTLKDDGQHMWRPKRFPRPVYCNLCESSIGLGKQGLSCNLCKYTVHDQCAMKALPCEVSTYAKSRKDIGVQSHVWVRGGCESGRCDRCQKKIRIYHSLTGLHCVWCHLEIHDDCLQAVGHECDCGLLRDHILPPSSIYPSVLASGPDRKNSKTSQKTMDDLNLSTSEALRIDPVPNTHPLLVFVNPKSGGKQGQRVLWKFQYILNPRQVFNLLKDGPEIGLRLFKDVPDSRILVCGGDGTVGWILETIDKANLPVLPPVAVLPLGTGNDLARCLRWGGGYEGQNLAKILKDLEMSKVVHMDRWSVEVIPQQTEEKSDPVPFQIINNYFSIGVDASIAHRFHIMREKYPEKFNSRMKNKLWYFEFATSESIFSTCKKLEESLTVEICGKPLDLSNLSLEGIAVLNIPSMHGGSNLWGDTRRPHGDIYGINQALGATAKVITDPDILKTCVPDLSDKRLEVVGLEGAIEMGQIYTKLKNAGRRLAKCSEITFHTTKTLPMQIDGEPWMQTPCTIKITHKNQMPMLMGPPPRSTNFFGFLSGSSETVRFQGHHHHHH

Human venous whole blood = experiment: Human whole blood IFN-γ assay; type: cell-based; conditions: human whole blood, read-out: INFg Whole Blood Normalized Agonist EC50;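 also: blood from healthy donors exposed to compound for 1 h before stimulation with anti-CD3 and anti-CD28 at 1 µg/mL each, IFN-γ quantified in supernatant by AlphaLISA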
Protocol: Human Whole Blood IFN-γ Assay
Human venous whole blood (22.5 μL per well), obtained from healthy donors, was pre-treated with compounds for one hour at 37° C. in a humidified 95% air/5% CO2 incubator. The blood was stimulated with 2.5 μL anti-human CD3 and anti-CD28 mAb at a final concentration of 1 μg/mL each for 24 hours at 37° C. IFN-γ in the supernatants was measured using AlphLISA kit (Cat # AL217).

[1] = Homo sapiens, 24 h, anti-CD3 plus anti-CD28, 24 hours, 3 μM reference compound = 100% activation
[2] = normalized to 3 μM reference compound with anti-CD3 plus anti-CD28 as 100% activation
[3] = Homo sapiens, 24 h, normalized to 3 μM reference compound with anti-CD3 plus anti-CD28 as 100% activation
[4] = anti-CD3 plus anti-CD28, 24 hours, 3 μM reference compound = 100% activation

Row | SMILES | pIC50 (human DGKζ; DGKζ liposome (LIPGLO) assay) | pIC50 (human DGKα; DGKα liposome (LIPGLO) assay) | pEC50 (Human venous whole blood; [1]) | pIC50 (human DGKζ; liposome (LIPGLO) assay) | pIC50 (human DGKα; liposome (LIPGLO) assay) | pEC50 (Human venous whole blood; [2]) | pEC50 (Human venous whole blood; [3]) | pEC50 (Human venous whole blood; [4])
1 | C[C@@H]1CN(c2c(C#N)c(=O)n(C)c3ccc(C#N)nc23)CCN1Cc1ccccc1C(F)(F)F [Example 1014] | 5.72 | 5.89 | 4.70 |  |  |  |  | 
2 | C[C@@H]1CN(c2cc(=O)n(C)c3ccc(C#N)nc23)[C@@H](C)CN1C(c1ccc(Cl)cc1)c1nc(C2CC2)no1 (single isomer, unassigned) [Example 1285] |  |  |  | 7.77 | 7.59 | 7.04 |  | 
3 | C[C@@H]1CN(c2cc(=O)n(C)c3ccc(C#N)nc23)[C@@H](C)CN1C(c1ccc(F)cc1)c1cc(F)ccn1 (stereo partly drawn) [Example 472, 8-((2S,5R)-4-((4-fluorophenyl)(4-fluoropyridin-2-yl)methyl)-2,5-dimethylpiperazin-1-yl)-5-methyl-6-oxo-5,6-dihydro-1,5-naphthyridine-2-carbonitrile] |  |  |  | 5.54 | 5.89 |  | 5.89 | 
4 | CCc1ccccc1C(c1ccc(F)cc1)N1C[C@H](C)N(c2c(C#N)c(=O)n(C)c3ccc(C#N)nc23)C[C@H]1C (single isomer, unassigned) [Example 809] | 5.64 | 3.85 | 4.70 |  |  |  |  | 
5 | COCCOC[C@@H]1CN(c2cc(=O)n(C)c3ccc(C#N)nc23)[C@@H](C)CN1C(C)c1ccc(OC(F)(F)F)cc1 (single isomer, unassigned) [Example 1406] |  |  |  | 6.02 | 5.57 |  | 4.92 | 
6 | CCC(c1cc(OC(F)(F)F)ccc1F)N1C[C@H](CC)N(c2cc(=O)n(C)c3ccc(C#N)nc23)C[C@H]1C (single isomer, unassigned) [Example 1381] |  |  |  | 5.68 | 4.72 | 4.70 |  | 
7 | C[C@@H]1CN(C(c2ccc(F)cc2)c2ccc(Cl)cc2)[C@@H](CO)CN1c1cc(=O)n(C)c2ccc(C#N)nc12 (stereo partly drawn) [Example 1175] |  |  |  | 6.00 | 4.68 |  | 4.70 | 
8 | Cc1ccc(C(c2ccc(F)cc2Cl)N2C[C@H](C)N(c3c(C#N)c(=O)n(C)c4ccc(C#N)nc34)C[C@H]2C)nc1 (stereo partly drawn) [Example 831] | 5.19 | 4.38 | 5.60 |  |  |  |  | 
9 | CC(c1csc(C(F)(F)F)n1)N1C[C@H](C)N(c2cc(=O)n(C)c3ccc(C#N)nc23)C[C@H]1C (single isomer, unassigned) [Example 1273] |  |  |  | 6.44 | 6.74 |  | 5.77 | 
10 | C[C@@H]1CN(c2c(C#N)c(=O)n(C)c3ccc(C#N)nc23)CCN1Cc1ccc(F)cc1Cl [Example 993] | 5.41 | 5.89 | 5.42 |  |  |  |  | 
11 | CC(c1ccc(Cl)cc1)N1CCN(c2c(C#N)c(=O)n(C)c3ccc(C#N)nc23)C[C@H]1C (single isomer, unassigned) [Example 979] | 4.26 | 6.04 | 4.70 |  |  |  |  | 
12 | C[C@@H]1CN(c2c(C#N)c(=O)n(C)c3ccc(C#N)nc23)[C@@H](C)CN1C(c1ccc(Cl)cc1)c1ccc(F)cn1 (single isomer, unassigned) [Example 830] | 5.02 | 5.82 |  |  |  |  |  | 5.72
13 | C[C@@H]1CN(c2cc(=O)n(C)c3ccc(C#N)nc23)[C@@H](C)CN1C(c1ccc(F)cc1)C1CCS(=O)(=O)CC1 (single isomer, unassigned) [Example 1300] |  |  |  | 5.74 | 4.85 |  | 5.15 | 
14 | C[C@@H]1CN(c2cc(=O)n(C)c3ccc(C#N)nc23)[C@@H](C)CN1C(c1ccc(F)cc1)c1nc(C2CC2)nn1C (single isomer, unassigned) [Example 769] | 6.70 | 4.80 |  |  |  |  |  | 6.34
15 | CC(c1cccc(OC(F)(F)F)c1F)N1C[C@H](C)N(c2cc(=O)n(C)c3ccc(C#N)nc23)C[C@H]1C (single isomer, unassigned) [Example 1208] |  |  |  | 7.43 | 5.96 | 6.00 |  | 
16 | Cc1ccc(C(c2ccc(F)cn2)N2CCN(c3c(C#N)c(=O)n(C)c4ccc(C#N)nc34)C[C@H]2C)cc1 (stereo partly drawn) [Example 898] | 6.15 | 6.47 |  |  |  |  |  | 6.32
17 | COCc1cc(C(C)N2C[C@H](C)N(c3cc(=O)n(C)c4ccc(C#N)nc34)C[C@H]2C)ccc1F (single isomer, unassigned) [Example 1317] |  |  |  | 6.01 | 5.10 | 5.54 |  | 
18 | Cc1ccc(C(c2cccc(F)c2)N2CCN(c3c(C#N)c(=O)n(C)c4ccc(C#N)nc34)C[C@H]2C)nc1 (single isomer, unassigned) [Example 923] | 5.72 | 5.26 | 6.10 |  |  |  |  | 

Row | SMILES | pIC50 (human DGKζ; DGKζ liposome (LIPGLO) assay) | pIC50 (human DGKα; DGKα liposome (LIPGLO) assay) | pEC50 (Human venous whole blood; [1]) | pIC50 (human DGKζ; liposome (LIPGLO) assay) | pIC50 (human DGKα; liposome (LIPGLO) assay) | pEC50 (Human venous whole blood; [2]) | pEC50 (Human venous whole blood; [3]) | pEC50 (Human venous whole blood; [4])
19 | C[C@@H]1CN(c2c(C#N)c(=O)n(C)c3ccc(C#N)nc23)CCN1C(c1cccc(F)c1)c1ccc(F)cn1 (single isomer, unassigned) [Example 911] | 5.92 | 6.16 |  |  |  |  |  | 6.47
20 | COc1ccc(C(C)N2C[C@H](C)N(c3cc(=O)n(C)c4ccc(C#N)nc34)C[C@H]2C)nc1 (single isomer, unassigned) [Example 644] |  |  |  | 6.30 | 6.80 | 5.42 |  | 
21 | C[C@@H]1CN(Cc2c(F)cc(F)cc2F)[C@@H](CO)CN1c1cc(=O)n(C)c2ccc(C#N)nc12 [Example 1182] |  |  |  | 5.92 | 4.47 |  | 4.70 | 
22 | CC(c1ccc(C2CC2)cc1)N1C[C@H](C)N(c2cc(=O)n(C)c3ccc(C#N)nc23)C[C@H]1C (single isomer, unassigned) [Example 1214] |  |  |  | 7.12 | 7.12 | 6.66 |  | 
23 | CC[C@@H]1CN(c2c(F)c(=O)n(C)c3ccc(C#N)nc23)[C@@H](C)CN1C(C)c1ccc(OC(F)(F)F)cc1 (single isomer, unassigned) [Example 1329] |  |  |  | 4.59 | 5.82 | 5.44 |  | 
24 | C[C@@H]1CN(c2cc(=O)n(C)c3ccc(C#N)nc23)[C@@H](C)CN1C(c1ccc(F)cc1)c1cc(C(C)(C)C)on1 (single isomer, unassigned) [Example 731] | 6.48 | 5.07 |  |  |  |  |  | 6.02
25 | CC[C@H]1CN(C(c2ccc(F)cc2)c2ccccn2)[C@H](CC)CN1c1cc(=O)n(C)c2ccc(C#N)nc12 (single isomer, unassigned) [Example 1043] |  |  |  | 6.54 | 7.31 |  | 6.41 | 
26 | CCc1ccccc1C(c1ccc(F)cc1)N1CCN(c2c(C#N)c(=O)n(C)c3ccc(C#N)nc23)C[C@H]1C (stereo partly drawn) [Example 877] | 6.62 | 5.29 |  |  |  |  |  | 5.22
27 | C[C@@H]1CN(c2cc(=O)n(C)c3ccc(C#N)nc23)[C@@H](C)CN1C(c1ccc(F)cc1)c1cccc(F)c1 (stereo partly drawn) [Example 293, 8-[(2S,5R)-4-[(3-fluorophenyl)(4-fluorophenyl)methyl]-2,5-dimethylpiperazin-1-yl]-5-methyl-6-oxo-5,6-dihydro-1,5-naphthyridine-2-carbonitrile] |  |  |  | 6.80 | 6.48 | 6.34 |  | 
28 | CC(c1c(F)cccc1F)N1C[C@H](C)N(c2c(C#N)c(=O)n(C)c3ccc(C#N)nc23)C[C@H]1C (single isomer, unassigned) [Example 780] | 4.51 | 5.82 | 4.85 |  |  |  |  | 
29 | CC(c1ccc(-n2cncn2)cc1)N1C[C@H](C)N(c2cc(=O)n(C)c3ccc(C#N)nc23)C[C@H]1C (single isomer, unassigned) [Example 1238] |  |  |  | 5.49 | 6.70 | 5.01 |  | 
30 | C[C@@H]1CN(c2cc(=O)n(C)c3ccc(C#N)nc23)[C@@H](C)CN1C(c1ccc(F)cc1)c1csc(C(F)(F)F)n1 (single isomer, unassigned) [Example 1334] |  |  |  | 6.85 | 6.96 | 6.59 |  | 
31 | C[C@@H]1CN(c2cc(=O)n(C)c3ccc(C#N)nc23)[C@@H](C)CN1C1(c2ccc(F)cc2)CC1 [Example 1454, 8-((2S,5R)-4-(1-(4-fluorophenyl)cyclopropyl)-2,5-dimethylpiperazin-1-yl)-5-methyl-6-oxo-5,6-dihydro-1,5-naphthyridine-2-carbonitrile] |  |  |  | 4.35 | 5.80 |  | 5.00 | 
32 | C[C@@H]1CN(C(c2ccc(F)cc2)c2ccc(Cl)cc2)[C@@H](CO)CN1c1cc(=O)n(C)c2ccc(C#N)nc12 (single isomer, unassigned) [Example 1174] |  |  |  | 6.37 | 4.96 |  | 5.85 | 
33 | C[C@@H]1CN(c2c(C#N)c(=O)n(C)c3ccc(C#N)nc23)[C@@H](C)CN1C(c1ccc(F)cc1)c1cscn1 (single isomer, unassigned) [Example 857] | 5.72 | 6.00 | 5.85 |  |  |  |  | 
34 | CC[C@@H]1CN(c2cc(=O)n(C)c3ccc(C#N)nc23)[C@@H](C)CN1C(c1ccc(F)cc1)c1cccc(C(F)(F)F)n1 (stereo partly drawn) [Example 1112] |  |  |  | 6.82 | 5.92 | 6.77 |  | 
35 | C[C@@H]1CN(c2c(C#N)c(=O)n(C)c3ccc(C#N)nc23)[C@@H](C)CN1C(c1ccc(F)cc1)c1cc(C(C)(C)C)on1 (single isomer, unassigned) [Example 866] | 6.03 | 6.41 |  |  |  |  |  | 5.64
36 | CC(c1ccccc1F)N1C[C@H](C)N(c2c(C#N)c(=O)n(C)c3ccc(C#N)nc23)C[C@H]1C (single isomer, unassigned) [Example 797] | 5.07 | 5.74 |  |  |  |  |  | 5.74
